In patent EP1840134B1 (NOVO NORDISK A/S, priority 1998, dated 2016):

Test system: monoclonal antibody specific for the N-terminal region of GLP-1 (7-37)
Assay: Cross reactivity of the RIA antibody used to determine plasma concentrations
Assay type: binding
Conditions: RIA at 4°C
Method: The entire procedure was carried out at 4°C.
The assay was carried out as follows: 100 µl plasma was mixed with 271 µl 96% ethanol, mixed using a vortex mixer and centrifuged at 2600*g for 30 min. The supernatant was decanted into Minisorp tubes and evaporated completely (Savant Speedvac AS290). The evaporation residue was reconstituted in the assay buffer consisting of 80 mM NaH2PO4/Na2HPO4, 0.1 % HSA (Orpha 20/21, Behring), 10 mM EDTA, 0.6 mM thiomersal (Sigma), pH 7.5. Samples were reconstituted in volumes suitable for their expected concentrations, and were allowed to reconstitute for 30 min. To 300 µl sample, 100 µl antibody solution in dilution buffer containing 40 mM NaH2PO4/Na2HPO4, 0.1 % HSA, 0.6 mM thiomersal, pH 7.5, was added. A non-specific sample was prepared by mixing 300 µl buffer with 100 µl dilution buffer. Individual standards were prepared from freeze dried stocks, dissolved in 300 µl assay buffer. All samples were pre-incubated in Minisorp tubes with antibody as described above for 72 h. […] Immediately after the centrifugation, the supernatant was decanted and counted in a γ-counter. The concentration in the samples was calculated from individual standard curves. Plasma concentrations were found, calculated as % of the maximum concentration for the individual compounds (n=2).

GLP-1 (1-37) (HDEFERHAEGTFTSDVSSYLEGQAAKEFIAWLVKGRG; Glucagon-like peptide 1; UniProt P01275 92-128, looked up, fragment)
cross reactivities: less than 1%
